Experimental data: patent US11518742B2 (priority 2020, dated 2022)
Like-named read-outs stand apart in the source and are kept apart here.

Experiments:
[1] = Toxicokinetics, 14-day intranasal study in dogs (Study 62959); assay type: in vivo; conditions: both sexes, Beagle, dog, plasma, inhaled or intranasal, dogs, 14-day intranasal study
Experimental: Assessments of mortality, clinical signs, olfactory reflex, body weights, food consumption, ophthalmology, and electrocardiograms were performed. In addition, clinical pathology assessments (hematology, coagulation, clinical chemistry and urinalysis) were evaluated once pretreatment and at termination. Blood samples were collected from the jugular vein of all animals on Days 1 and 14, at up to 8 time points relative to treatment, for analysis of test item concentration in plasma and the subsequent calculation of toxicokinetic parameters. Following dosing, the Main animals were euthanized and subjected to a complete necropsy examination on Day 15. […] All Main and Recovery study animals underwent complete necropsy examinations, selected tissues/organs were retained, and microscopic evaluations of a standard set of tissues were performed.
For toxicokinetics, a series of 8 blood samples were collected from the jugular vein from all treated animals on each of Days 1 and 14 of the treatment period at 2, 5, 10, 15, 30, and 60 minutes as well as 3 and 8 hours after treatment.

[2] = system: Escherichia coli tester strain WP2uvrA; experiment: Bacterial Reverse Mutation Test (Ames test), Escherichia coli
[3] = Toxicokinetics, 14-day intranasal study in rats (Study 700041); assay type: in vivo; conditions: Sprague Dawley, rat, plasma, inhaled or intranasal; for AUC(0-t): read-out: AUC0-Tlast [SE]; for AUC(0-inf): read-out: AUCINF_obs
Experimental: The animals were monitored for mortality, clinical signs, respiratory measurements, body weights, food consumption, and body temperature. Ophthalmoscopic examinations and respiratory function tests were performed on all animals at scheduled timepoints. Clinical pathology assessments (hematology, coagulation, clinical chemistry, and urinalysis) were evaluated at termination. […] Following dosing, the Main animals were euthanized and subjected to a complete necropsy examination on Day 15. […] TK animals were euthanized after the last blood collection and discarded without further examination. At terminal euthanasia, selected tissues/organs were weighed, and microscopic evaluations of a standard set of tissues including the nasal turbinates (4 sections) and brain (7 sections) were performed for all Main and Recovery study animals.
Following dosing, animals in the Main group were euthanized and subjected to a necropsy examination on Day 15.

[4] = system: Salmonella typhimurium tester strains; experiment: Bacterial Reverse Mutation Test (Ames test), Salmonella typhimurium
[5] = target: hERG potassium channel current (IKr) (Homo sapiens, UniProt Q12809); experiment: cell-based
Excerpt: This assay is employed as a screen to assess potential risks for QT interval prolongation.

[6] = female, 5 mg/kg/day, Day 1, Female
[7] = female, 5 mg/kg/day, Day 14, Female
[8] = female, 20 mg/kg/day, Day 1, Female
[9] = female, 75 mg/kg/day, Day 1, Female
[10] = female, 75 mg/kg/day, Day 14, Female
[11] = male, 5 mg/kg/day, Day 14, Male
[12] = male, 20 mg/kg/day, Day 1, Male
[13] = male, 20 mg/kg/day, Day 14, Male
[14] = male, 75 mg/kg/day, Day 1, Male
[15] = male, 75 mg/kg/day, Day 14, Male

Sequence of hERG potassium channel current (IKr) (Q12809 whole entry): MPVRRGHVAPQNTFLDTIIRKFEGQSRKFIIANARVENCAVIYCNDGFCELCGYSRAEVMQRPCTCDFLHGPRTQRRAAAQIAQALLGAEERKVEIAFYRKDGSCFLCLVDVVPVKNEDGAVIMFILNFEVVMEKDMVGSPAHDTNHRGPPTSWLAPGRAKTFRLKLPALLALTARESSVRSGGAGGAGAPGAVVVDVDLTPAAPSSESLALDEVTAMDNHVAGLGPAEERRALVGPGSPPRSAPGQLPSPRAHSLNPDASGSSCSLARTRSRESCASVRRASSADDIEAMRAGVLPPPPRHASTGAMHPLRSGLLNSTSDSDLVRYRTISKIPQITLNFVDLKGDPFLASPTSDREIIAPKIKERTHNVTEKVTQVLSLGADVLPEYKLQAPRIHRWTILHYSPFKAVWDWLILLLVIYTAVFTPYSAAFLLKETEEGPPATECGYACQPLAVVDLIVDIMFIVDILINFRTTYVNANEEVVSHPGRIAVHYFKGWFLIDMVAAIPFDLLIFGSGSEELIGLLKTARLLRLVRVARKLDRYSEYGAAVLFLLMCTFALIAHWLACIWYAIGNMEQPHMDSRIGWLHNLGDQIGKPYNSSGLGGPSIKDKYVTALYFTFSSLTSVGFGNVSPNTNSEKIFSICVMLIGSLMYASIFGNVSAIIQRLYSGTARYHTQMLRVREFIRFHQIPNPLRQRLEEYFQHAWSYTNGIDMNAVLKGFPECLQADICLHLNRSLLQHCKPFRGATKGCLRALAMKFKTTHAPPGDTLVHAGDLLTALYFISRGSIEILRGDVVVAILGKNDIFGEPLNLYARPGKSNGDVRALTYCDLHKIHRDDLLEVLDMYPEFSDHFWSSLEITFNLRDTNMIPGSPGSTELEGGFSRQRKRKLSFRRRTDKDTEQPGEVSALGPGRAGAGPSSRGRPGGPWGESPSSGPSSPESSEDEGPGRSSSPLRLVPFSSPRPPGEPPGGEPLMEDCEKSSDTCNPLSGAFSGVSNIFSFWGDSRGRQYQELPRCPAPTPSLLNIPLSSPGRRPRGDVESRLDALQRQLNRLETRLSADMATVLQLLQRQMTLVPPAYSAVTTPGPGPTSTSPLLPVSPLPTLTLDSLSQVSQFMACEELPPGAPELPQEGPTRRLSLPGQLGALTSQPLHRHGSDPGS

COc1ccc2[nH]cc(CCN(C)C)c2c1 [5MeODMT, 5-methoxy-N,N-dimethyltryptamine]
Tmax [1]: 3 to 14 min | half-life ([1]; read-out: apparent elimination half-lives): 19 to 95 min | Cytotoxicity ([2]; E. coli strain, absence or presence of S9 mix): No cytotoxicity | Mutagenic potential (conclusion) ([2]; absence or presence of S9): no mutagenic potential | Tmax ([3]; both sexes, 75 mg/kg, rats, 14-day intranasal study, 5, 20, 75 mg/kg): 2 to 5 min | half-life ([3]; both sexes, 75 mg/kg, rats, 14-day intranasal study, 5, 20, 75 mg/kg, read-out: apparent t1/2): 6.8 to 9.4 min | Cmax [3, 6]: 186 ng/mL | Tmax [3, 6]: 9.96 min | AUC(0-t) [3, 6]: 53.2 ng·h/mL | AUC(0-inf) [3, 6]: 53.7 ng·h/mL | Cmax [3, 7]: 645 ng/mL | AUC(0-t) [3, 7]: 63.8 ng·h/mL | AUC(0-inf) [3, 7]: 64 ng·h/mL | half-life ([3]; female, 5 mg/kg/day, Day 14, Female, read-out: t1/2 (converted)): 6.78 min | Cmax [3, 8]: 679 ng/mL | AUC(0-t) [3, 8]: 198 ng·h/mL | AUC(0-inf) [3, 8]: 198 ng·h/mL | Cmax ([3]; female, 20 mg/kg/day, Day 14, Female): 795 ng/mL | Cmax [3, 9]: 1310 ng/mL | AUC(0-t) [3, 9]: 228 ng·h/mL | AUC(0-inf) [3, 9]: 228 ng·h/mL | half-life ([3]; female, 75 mg/kg/day, Day 1, Female, read-out: t1/2 (converted)): 9.36 min | Cmax [3, 10]: 870 ng/mL | AUC(0-t) [3, 10]: 155 ng·h/mL | half-life ([3]; female, 75 mg/kg/day, Day 14, Female, read-out: t1/2 (converted)): 7.8 min | Cmax ([3]; male, 5 mg/kg/day, Day 1, Male): 191 ng/mL | AUC(0-t) ([3]; male, 5 mg/kg/day, Day 1, Male): 39.9 ng·h/mL | AUC(0-inf) ([3]; male, 5 mg/kg/day, Day 1, Male): 40.1 ng·h/mL | Cmax [3, 11]: 627 ng/mL | AUC(0-t) [3, 11]: 114 ng·h/mL | AUC(0-inf) [3, 11]: 115 ng·h/mL | Cmax [3, 12]: 4190 ng/mL | AUC(0-t) [3, 12]: 420 ng·h/mL | AUC(0-inf) [3, 12]: 421 ng·h/mL | half-life ([3]; male, 20 mg/kg/day, Day 1, Male, read-out: t1/2 (converted)): 7.5 min | Cmax [3, 13]: 1200 ng/mL | AUC(0-t) [3, 13]: 133 ng·h/mL | AUC(0-inf) [3, 13]: 133 ng·h/mL | half-life ([3]; male, 20 mg/kg/day, Day 14, Male, read-out: t1/2 (converted)): 8.58 min | Cmax [3, 14]: 7010 ng/mL | AUC(0-t) [3, 14]: 1030 ng·h/mL | AUC(0-inf) [3, 14]: 1040 ng·h/mL | Cmax [3, 15]: 3290 ng/mL | AUC(0-t) [3, 15]: 391 ng·h/mL | AUC(0-inf) [3, 15]: 392 ng·h/mL | half-life ([3]; male, 75 mg/kg/day, Day 14, Male, read-out: t1/2 (converted)): 6.96 min | Cytotoxicity ([4]; 1600 μg/plate, all S. typhimurium strains): slight cytotoxicity | Repeat test, revertant colonies ([4]; TA1537 and TA98, absence of S9 mix, up to 2000 μg/plate): no increases in the revertant colonies number per plate | Mutagenic potential (conclusion) ([4]; absence or presence of S9): no mutagenic potential | IC50 [5]: 8.69 µM | inhibition at 1 µM ([5]; human): 5.03 ± 1.95% | inhibition at 3 µM ([5]; human): 23.8 ± 6.1% | inhibition at 10 µM ([5]; human): 52.7 ± 2.61% | inhibition at 35 µM ([5]; human): 82.2 ± 1.91%
